Molecular target: T1, CDK2 (Homo sapiens, UniProt P24941)
T1 construct: endogenous in cells; host or cells: MKN1 cells
Experiment: CDK2 degradation in MKN1 cells (AlphaLISA)
Type: cell-based
Settings: for CDK2 degradation 14 h: Average Dmax % / DC50: 14 h incubation; for DC50: read-out: CDK2 degradation 14 h: Mean external-Abs DC50; for Dmax: MKN-1, 14 h incubation
Procedure, shortened: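 MKN1 cells (2e4/well) treated 14 h at 37° C with 11-point 1:5 dilutions (0.001 nM-10 μM, 0.1% DMSO). CDK2 in lysates quantified by AlphaLISA, no-cell background subtracted; DC50 from four-parameter logistic fit.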

Compound | CDK2 degradation 14 h: Average Dmax % | DC50 [nM] | Dmax [%]
Cc1cc(S(=O)(=O)N2CCC(CN(C)C3CCN(c4cccc5c4n(C)c(=O)n5C4CCC(=O)NC4=O)CC3)CC2)ccc1Nc1ncc2c(n1)N(C1CCCC1)C(=O)C21CC1 (stereo not shown) [I-536] | A (A (>75% o)) | < 100 | –
Cc1cc(S(=O)(=O)NCCOC2CCC(CN3CCC(c4ccc5c(c4)n(C)c(=O)n5C4CCC(=O)NC4=O)CC3)CC2)ccc1Nc1ncc2c(n1)N(C1CCCC1)C(=O)C21CC1 (stereo not shown) [I-537] | A (A (>75% o)) | < 100 | –
Cc1cc(S(=O)(=O)C2CC3(CCN(CC4CCN(c5ccc6c(c5F)n(C)c(=O)n6C5CCC(=O)NC5=O)CC4)CC3)C2)ccc1Nc1ncc2c(n1)N(C1CCCC(O)C1)C(=O)C21CC1 (stereo not shown) [I-609] | A (A (>75% o)) | < 100 | –
Cc1cc(S(=O)(=O)NC2CCC(N3CCN(CC4CN(c5cccc6c5n(C)c(=O)n6C5CCC(=O)NC5=O)C4)CC3)CC2)ccc1Nc1ncc(C(F)(F)F)c(N2CCCC(C)(O)C2)n1 (stereo not shown) [I-686] | A (A (>75% o)) | < 100 | –
Cc1cc(S(=O)(=O)NC2CC(N3CCC4(CC3)CN(Cc3cccc5c3n(C)c(=O)n5C3CCC(=O)NC3=O)C4)C2)ccc1Nc1ncc(C(F)(F)F)c(N2CCCC(C)(O)C2)n1 (stereo not shown) [I-697] | A (A (>75% o)) | 100 to 500 | –
Cc1cc(S(=O)(=O)NC2CC(N3CCN(CC4(F)CCN(c5cccc6c5n(C)c(=O)n6C5CCC(=O)NC5=O)CC4)CC3)C2)ccc1Nc1ncc(C(F)(F)F)c(N2CCCC(C)(O)C2)n1 (stereo not shown) [I-698] | A (A (>75% o)) | < 100 | –
Cc1cc(S(=O)(=O)NC2CC(N3CCC(F)(CN4CCC(c5cccc6c5n(C)c(=O)n6C5CCC(=O)NC5=O)CC4)CC3)C2)ccc1Nc1ncc(C(F)(F)F)c(N2CCCC(C)(O)C2)n1 (stereo not shown) [I-699] | A (A (>75% o)) | < 100 | –
Cc1cc(S(=O)(=O)NC2CC(N3CCCN(CC4CCN(c5cccc6c5n(C)c(=O)n6C5CCC(=O)NC5=O)CC4)CC3)C2)ccc1Nc1ncc(C(F)(F)F)c(N2CCCC(C)(O)C2)n1 (stereo not shown) [I-704] | A (A (>75% o)) | < 100 | –
Cc1cc(S(=O)(=O)NC2CC(N3CCN(CC4CCN(c5ccc(NC6CCC(=O)NC6=O)cc5C)CC4)CC3)C2)ccc1Nc1ncc(C(F)(F)F)c(N2CCCC(C)(O)C2)n1 (stereo not shown) [I-712] | B (B (>50% -75%)) | < 100 | –
Cc1cc(S(=O)(=O)NC2CC(N3CCN(CC4CCN(c5ccc(C6CCC(=O)NC6=O)c(Cl)c5)CC4)CC3)C2)ccc1Nc1ncc(C(F)(F)F)c(N2CCCC(C)(O)C2)n1 (stereo not shown) [I-713] | A (A (>75% o)) | < 100 | –
Cc1cc(S(=O)(=O)NC2CC(N3CCN(CC4CCN(c5ccc(Cl)c(C6CCC(=O)NC6=O)c5)CC4)CC3)C2)ccc1Nc1ncc(C(F)(F)F)c(N2CCCC(C)(O)C2)n1 (stereo not shown) [I-715] | A (A (>75% o)) | < 100 | –
Cc1cc(S(=O)(=O)NC2CC(N3CCN(CC4CCN(c5ccc(NC6CCC(=O)NC6=O)c(Cl)c5)CC4)CC3)C2)ccc1Nc1ncc(C(F)(F)F)c(N2CCCC(C)(O)C2)n1 (stereo not shown) [I-717] | A (A (>75% o)) | < 100 | –
Cc1cc(S(=O)(=O)NC2CC(N3CCN(CC4CCN(c5ccc(C6CCC(=O)NC6=O)cc5)CC4)CC3)C2)ccc1Nc1ncc(C(F)(F)F)c(N2CCCC(C)(O)C2)n1 (stereo not shown) [I-719] | A (A (>75% o)) | < 100 | –
Cc1cc(S(=O)(=O)NC2CC(N3CCN(CC4CCN(c5cc(NC6CCC(=O)NC6=O)ccc5Cl)CC4)CC3)C2)ccc1Nc1ncc(C(F)(F)F)c(N2CCCC(C)(O)C2)n1 (stereo not shown) [I-720] | A (A (>75% o)) | < 100 | –
Cc1cc(S(=O)(=O)NC2CC(N3CCN(CC4CCN(c5ccc(N6CCC(=O)NC6=O)c(Cl)c5)CC4)CC3)C2)ccc1Nc1ncc(C(F)(F)F)c(N2CCCC(C)(O)C2)n1 (stereo not shown) [I-721] | A (A (>75% o)) | < 100 | –
Cc1cc(S(=O)(=O)NC2CC(N3CCN(CC4CCN(c5ccc(Cl)c(N6CCC(=O)NC6=O)c5)CC4)CC3)C2)ccc1Nc1ncc(C(F)(F)F)c(N2CCCC(C)(O)C2)n1 (stereo not shown) [I-722] | A (A (>75% o)) | < 100 | –
Cc1cc(S(=O)(=O)NC2CC(N3CCN(CC4CCN(c5cccc6c5n(C)c(=O)n6C5CCC(=O)NC5=O)CC4)CC3)C2)ccc1Nc1ncc(C(F)(F)F)c(N2CCCCC2)n1 (stereo not shown) [I-795] | A (A (>75% o)) | < 100 | –
Cc1cc(S(=O)(=O)N[C@H]2C[C@H](N3CCN(CC4CCN(c5cccc6c5n(C)c(=O)n6C5CCC(=O)NC5=O)CC4)CC3)C2)ccc1Nc1ncc(C(F)(F)F)c(N2CCC[C@@H](C(F)F)C2)n1 (stereo partly shown) [I-797] | A (A (>75% o)) | < 100 | –
Cc1cc(S(=O)(=O)NC2CCC(CN3CCN(c4cc(Cl)c(C5CCC(=O)NC5=O)cc4F)CC3)CC2)ccc1Nc1ncc(C(F)(F)F)c(N2CCCC(C)(O)C2)n1 (stereo not shown) [I-800] | A (A (>75% o)) | < 100 | –
Cc1cc(S(=O)(=O)NC2(C)CCN(CC3CCN(c4ccc(C5CCC(=O)NC5=O)c(Cl)c4)CC3)CC2)ccc1Nc1ncc(C(F)(F)F)c(N2CCC[C@](C)(O)C2)n1 (stereo partly shown) [I-801] | A (A (>75% o)) | < 100 | –
Cc1cc(S(=O)(=O)NC23CCC(CN4CCN(c5ccc(C6CCC(=O)NC6=O)cc5)CC4)(CC2)CC3)ccc1Nc1ncc(C(F)(F)F)c(N2CCC[C@](C)(O)C2)n1 (stereo partly shown) [I-802] | A (A (>75% o)) | < 100 | –
Cc1cc(S(=O)(=O)NC2(C)CCC(CN3CCN(c4ccc(C5CCC(=O)NC5=O)cc4F)CC3)CC2)ccc1Nc1ncc(C(F)(F)F)c(N2CCC[C@](C)(O)C2)n1 (stereo partly shown) [I-803] | A (A (>75% o)) | < 100 | –
Cc1cc(S(=O)(=O)N[C@@H]2CCN(CC3CCN(c4ccc(C5CCC(=O)NC5=O)cc4F)CC3)C[C@H]2F)ccc1Nc1ncc(C(F)(F)F)c(N2CCC[C@](C)(O)C2)n1 (stereo partly shown) [I-804] | A (A (>75% o)) | < 100 | –
Cc1cc(S(=O)(=O)NC2CCC(CN3CCN(c4cc(F)c(C5CCC(=O)NC5=O)cc4C)CC3)CC2)ccc1Nc1ncc(C(F)(F)F)c(N2CCCC(C)(O)C2)n1 (stereo not shown) [I-806] | A (A (>75% o)) | < 100 | –

Second part, the compound after the results:

CDK2 degradation 14 h: Average Dmax % | DC50 [nM] | Dmax [%] | Compound
A (A (>75% o)) | < 100 | – | Cc1cc(S(=O)(=O)NC2CC(N3CCN(CC4CCN(c5cccc6c5n(C)c(=O)n6C5CCC(=O)NC5=O)CC4)CC3)C2)ccc1Nc1ncc(C(F)(F)F)c(N2CCCC(C)(O)C2)n1 (stereo not shown) [I-663]
A (A (>75% o)) | < 100 | – | Cc1cc(S(=O)(=O)NC2(C)CC(N3CCN(CC4CCN(c5ccc6c(c5F)n(C)c(=O)n6C5CCC(=O)NC5=O)CC4)CC3)C2)ccc1Nc1ncc(C(F)(F)F)c(N2CCCC(C)(O)C2)n1 (stereo not shown) [I-666]
A (A (>75% o)) | < 100 | – | Cc1cc(S(=O)(=O)NC2CC(N3CCN(CC4CCN(c5ccc(C6CCC(=O)NC6=O)c(Cl)c5)CC4)CC3)C2)ccc1Nc1ncc(C(F)(F)F)c(N2CCCC(C)(O)C2)n1 (stereo not shown) [I-714]
B (B (>50% -75%)) | > 1000 | – | Cc1cc(S(=O)(=O)NC2CC(N3CCN(CC4CCN(c5ccc(Cl)c(NC6CCC(=O)NC6=O)c5)CC4)CC3)C2)ccc1Nc1ncc(C(F)(F)F)c(N2CCCC(C)(O)C2)n1 (stereo not shown) [I-716]
A (A (>75% o)) | 100 to 500 | – | Cc1cc(S(=O)(=O)NC2CC(N3CCN(CC4CCN(c5cccc(C6CCC(=O)NC6=O)c5)CC4)CC3)C2)ccc1Nc1ncc(C(F)(F)F)c(N2CCCC(C)(O)C2)n1 (stereo not shown) [I-718]
– | < 100 | > 75 | Cc1cc(S(=O)(=O)NC2CCC(CN3CCN(c4ccc(C5CCC(=O)NC5=O)c(Cl)c4)CC3)CC2)ccc1Nc1ncc(C(F)(F)F)c(N2CCC[C@](C)(O)C2)n1 (stereo partly drawn) [I-745, N-[4-[[4-[3-chloro-4-(2,6-dioxo-3-piperidyl)phenyl]piperazin-1-yl]methyl]cyclohexyl]-4-[[4-[(3S)-3-hydroxy-3-methyl-1-piperidyl]-5-(trifluoromethyl)pyrimidin-2-yl]amino]-3-methyl-benzenesulfonamide]
– | < 100 | > 75 | Cc1cc(S(=O)(=O)N[C@H](C)CO[C@H]2CC[C@H](CN3CCN(c4cccc5c4n(C)c(=O)n5C4CCC(=O)NC4=O)CC3)CC2)ccc1Nc1ncc(C(F)(F)F)c(N2CCC[C@](C)(O)C2)n1 (stereo partly drawn) [I-766, N-[(1R)-2-[4-[[4-[1-(2,6-dioxo-3-piperidyl)-3-methyl-2-oxo-benzimidazol-4-yl]piperazin-1-yl]methyl]cyclohexoxy]-1-methyl-ethyl]-4-[[4-[(3S)-3-hydroxy-3-methyl-1-piperidyl]-5-(trifluoromethyl)pyrimidin-2-yl]amino]-3-methyl-benzenesulfonamide]
A (A (>75% o)) | < 100 | – | Cc1cc(S(=O)(=O)NC2CCC(CN3CCN(c4cccc(NC5CCC(=O)NC5=O)c4)CC3)CC2)ccc1Nc1ncc(C(F)(F)F)c(N2CCCC(C)(O)C2)n1 (stereo not shown) [I-775]
A (A (>75% o)) | < 100 | – | Cc1cc(S(=O)(=O)N[C@H]2C[C@H](N3CCN(CC4CCN(c5cccc6c5n(C)c(=O)n6C5CCC(=O)NC5=O)CC4)CC3)C2)ccc1Nc1ncc(C(F)(F)F)c(N2CCC[C@H](C(F)F)C2)n1 (stereo partly shown) [I-796]
A (A (>75% o)) | < 100 | – | Cc1cc(S(=O)(=O)NC2CCC(CN3CCN(c4ccc(C5CCC(=O)NC5=O)cc4)CC3)CC2)ccc1Nc1ncc(C(F)(F)F)c(N2CCCC(C)(O)C2)n1 (stereo not shown) [I-799]
A (A (>75% o)) | < 100 | – | Cc1cc(S(=O)(=O)NC2CCC(CN3CCN(c4ccc(C5CCC(=O)NC5=O)cc4Cl)CC3)CC2)ccc1Nc1ncc(C(F)(F)F)c(N2CCCC(C)(O)C2)n1 (stereo not shown) [I-807]

— US20240173419A1, “CDK2 DEGRADERS AND USES THEREOF” (Kymera Therapeutics, Inc., priority 2022, published 2024)
